Patent US20240317727A1 (Duke University, priority 2018, published 2024)

Columns and labels:
[1] = system: C4/2 scramble and HSF1-knockdown cell lines; experiment: C4/2 scramble vs HSF1-knockdown cell line; assay type: cell-based, human
Experimental: GAPDH was used as a loading control. […] Hsp70 is a gene activated by HSF1 and STAT6 is a gene repressed by HSF1. […] Shown is the solvent (DMSO) or two concentrations of Compound 0017 at 2.5 and 5 μM. ns=not significant; *=P<0.05; **=P<0.01 in accordance with one embodiment of the present disclosure.

[2] = system: K-562; experiment: NCI60 cell growth and viability: K-562; assay type: cell-based; settings: K-562, Leukemia, two days
[3] = system: HOP-92; experiment: NCI60 cell growth and viability: HOP-92; assay type: cell-based; settings: HOP-92, Non-Small Cell Lung Cancer, two days
[4] = system: NCI-H23; assay type: cell-based; settings: NCI-H23, Non-Small Cell Lung Cancer, two days
[5] = system: COLO 205; experiment: NCI60 cell growth and viability: COLO 205; assay type: cell-based; settings: COLO 205, Colon Cancer, two days
[6] = system: HCC-2998; experiment: NCI60 cell growth and viability: HCC-2998; assay type: cell-based; settings: HCC-2998, Colon Cancer, two days
[7] = system: HCT-116; experiment: NCI60 cell growth and viability: HCT-116; assay type: cell-based; settings: HCT-116, Colon Cancer, two days
[8] = system: HCT-15; experiment: NCI60 cell growth and viability: HCT-15; assay type: cell-based; settings: HCT-15, Colon Cancer, two days
[9] = system: HT29; experiment: NCI60 cell growth and viability: HT29; assay type: cell-based; settings: HT29, Colon Cancer, two days
[10] = system: KM12; experiment: NCI60 cell growth and viability: KM12; assay type: cell-based; settings: KM12, Colon Cancer, two days
[11] = system: SNB-19; experiment: NCI60 cell growth and viability: SNB-19; assay type: cell-based; settings: SNB-19, CNS Cancer, two days
[12] = system: SNB-75; experiment: NCI60 cell growth and viability: SNB-75; assay type: cell-based; settings: SNB-75, CNS Cancer, two days
[13] = system: LOX IMVI; experiment: NCI60 cell growth and viability: LOX IMVI; assay type: cell-based; settings: Melanoma, two days
[14] = system: MDA-MB-435; experiment: NCI60 cell growth and viability: MDA-MB-435; assay type: cell-based; settings: MDA-MB-435, Melanoma, two days
[15] = system: SK-MEL-2; experiment: NCI60 cell growth and viability: SK-MEL-2; assay type: cell-based; settings: SK-MEL-2, Melanoma, two days
[16] = system: SK-MEL-28; experiment: NCI60 cell growth and viability: SK-MEL-28; assay type: cell-based; settings: SK-MEL-28, Melanoma, two days
[17] = system: UACC-62; experiment: NCI60 cell growth and viability: UACC-62; assay type: cell-based; settings: UACC-62, Melanoma, two days
[18] = system: IGROV1; experiment: NCI60 cell growth and viability: IGROV1; assay type: cell-based; settings: IGROV1, Ovarian Cancer, two days
[19] = system: SK-OV-3; experiment: NCI60 cell growth and viability: SK-OV-3; assay type: cell-based; settings: SK-OV-3, Ovarian Cancer, two days
[20] = system: 786-0; experiment: NCI60 cell growth and viability: 786-0; assay type: cell-based; settings: 786-0, Renal Cancer, two days
[21] = system: DU-145; experiment: NCI60 cell growth and viability: DU-145; assay type: cell-based; settings: DU-145, Prostate Cancer, two days
[22] = system: MCF7; experiment: NCI60 cell growth and viability: MCF7; assay type: cell-based; settings: MCF7, Breast Cancer, two days
[23] = system: OVCAR-3; experiment: NCI60 cell growth and viability: OVCAR-3
[24] = Homo sapiens, 48 h, read-out: log10 [GI50 (M)] (converted)
[25] = Homo sapiens, 48 h, read-out: log10 [LC50 (M)] (converted)

Q: With `O=C(Nc1ccc(F)cc1)Nc1ccc(Cl)c([N+](=O)[O-])c1` [Compound 0017, 1-(4-chloro-3-nitrophenyl)-3-(4-fluorophenyl)urea] as the compound, how does the “cell viability, HSF1-expressing vs HSF1-knockdown C4/2 cells” value ([1]; 2.5 and 5 μM, FIG. 5C) read?
A: preferentially reduces cell viability

Q: And the “Hsp70 and STAT6 expression” value ([1]; 48-hour treatment, in C4/2 scramble cell line, but not in HSF1-knockdown cell line, FIG. 5B)?
A: inhibition of Hsp70 expression and de-repression of STAT6

Q: And the GI50 ([2]; Homo sapiens, K562, 48 h, read-out: log10 [GI50 (M)] (converted))?
A: 3.24e-06 M

Q: What about the CC50 ([2]; Homo sapiens, K562, 48 h, read-out: log10 [LC50 (M)] (converted)) of the same compound?
A: ≥ 0.0001 M

Q: What about the “log10 [TGI (M)]” value [2] of the same compound?
A: −4.00 log10 M

Q: And the “log10 [TGI (M)]” value [3]?
A: −5.21 log10 M

Q: What about the GI50 [3, 24] of the same compound?
A: 2.04e-06 M

Q: What about the CC50 [3, 25] of the same compound?
A: 2.69e-05 M

Q: What about the GI50 [4, 24] of the same compound?
A: 2.63e-06 M

Q: And the CC50 [4, 25]?
A: 4.57e-05 M

Q: And the “log10 [TGI (M)]” value [4]?
A: −4.97 log10 M

Q: And the “log10 [TGI (M)]” value [5]?
A: −5.20 log10 M

Q: What about the GI50 [5, 24] of the same compound?
A: 2.45e-06 M

Q: And the CC50 [5, 25]?
A: 3.47e-05 M

Q: What about the “log10 [TGI (M)]” value [6] of the same compound?
A: −4.84 log10 M

Q: What about the GI50 [6, 24] of the same compound?
A: 3.72e-06 M

Q: And the CC50 [6, 25]?
A: 4.27e-05 M

Q: What about the “log10 [TGI (M)]” value [7] of the same compound?
A: −4.93 log10 M

Q: And the GI50 [7, 24]?
A: 3.09e-06 M

Q: And the CC50 [7, 25]?
A: 3.47e-05 M

Q: What about the “log10 [TGI (M)]” value [8] of the same compound?
A: −4.92 log10 M

Q: And the GI50 [8, 24]?
A: 2.95e-06 M

Q: And the CC50 [8, 25]?
A: 3.72e-05 M

Q: What about the “log10 [TGI (M)]” value [9] of the same compound?
A: −4.91 log10 M

Q: What about the GI50 ([9]; Homo sapiens, HT-29, 48 h, read-out: log10 [GI50 (M)] (converted)) of the same compound?
A: 3.24e-06 M

Q: And the CC50 ([9]; Homo sapiens, HT-29, 48 h, read-out: log10 [LC50 (M)] (converted))?
A: 5.37e-05 M

Q: And the GI50 [10, 24]?
A: 3.31e-06 M

Q: What about the CC50 [10, 25] of the same compound?
A: 9.12e-05 M

Q: And the “log10 [TGI (M)]” value [10]?
A: −4.86 log10 M

Q: What about the GI50 [11, 24] of the same compound?
A: 3.55e-06 M

Q: What about the CC50 [11, 25] of the same compound?
A: 4.68e-05 M

Q: What about the “log10 [TGI (M)]” value [11] of the same compound?
A: −4.84 log10 M

Q: And the GI50 [12, 24]?
A: 5.89e-06 M

Q: And the CC50 [12, 25]?
A: ≥ 0.0001 M

Q: And the “log10 [TGI (M)]” value [12]?
A: −4.00 log10 M

Q: And the GI50 [13, 24]?
A: 3.55e-06 M

Q: What about the CC50 [13, 25] of the same compound?
A: 4.07e-05 M

Q: What about the “log10 [TGI (M)]” value [13] of the same compound?
A: −4.91 log10 M

Q: And the GI50 [14, 24]?
A: 3.09e-06 M

Q: What about the CC50 [14, 25] of the same compound?
A: 4.37e-05 M

Q: What about the “log10 [TGI (M)]” value [14] of the same compound?
A: −4.94 log10 M

Q: What about the GI50 [15, 24] of the same compound?
A: 2.34e-06 M

Q: What about the CC50 [15, 25] of the same compound?
A: 2.51e-05 M

Q: What about the “log10 [TGI (M)]” value [15] of the same compound?
A: −5.23 log10 M

Q: And the GI50 [16, 24]?
A: 3.8e-06 M

Q: And the CC50 [16, 25]?
A: 3.8e-05 M

Q: And the “log10 [TGI (M)]” value [16]?
A: −4.85 log10 M

Q: What about the GI50 [17, 24] of the same compound?
A: 3.02e-06 M

Q: What about the CC50 [17, 25] of the same compound?
A: 3.63e-05 M

Q: And the “log10 [TGI (M)]” value [17]?
A: −4.88 log10 M

Q: What about the GI50 ([18]; Homo sapiens, IGROV-1, 48 h, read-out: log10 [GI50 (M)] (converted)) of the same compound?
A: 4.79e-06 M

Q: And the CC50 ([18]; Homo sapiens, IGROV-1, 48 h, read-out: log10 [LC50 (M)] (converted))?
A: 7.41e-05 M

Q: What about the “log10 [TGI (M)]” value [18] of the same compound?
A: −4.73 log10 M

Q: What about the GI50 [19, 24] of the same compound?
A: 2.63e-06 M

Q: What about the CC50 [19, 25] of the same compound?
A: 4.27e-05 M

Q: What about the “log10 [TGI (M)]” value [19] of the same compound?
A: −5.12 log10 M

Q: And the “log10 [TGI (M)]” value [20]?
A: −4.88 log10 M

Q: And the GI50 [20, 24]?
A: 3.39e-06 M

Q: What about the CC50 [20, 25] of the same compound?
A: 3.8e-05 M

Q: What about the “log10 [TGI (M)]” value [21] of the same compound?
A: −4.67 log10 M

Q: What about the GI50 [21, 24] of the same compound?
A: 4.47e-06 M

Q: And the CC50 [21, 25]?
A: ≥ 0.0001 M

Q: What about the GI50 [22, 24] of the same compound?
A: 2.63e-06 M

Q: What about the CC50 [22, 25] of the same compound?
A: 7.08e-05 M

Q: What about the “log10 [TGI (M)]” value [22] of the same compound?
A: −4.92 log10 M

Q: What about the GI50 ([23]; Homo sapiens, OVCAR-3, 48 h, read-out: log10 [GI50 (M)] (converted)) of the same compound?
A: 3.8e-06 M

Q: What about the CC50 ([23]; Homo sapiens, OVCAR-3, 48 h, read-out: log10 [LC50 (M)] (converted)) of the same compound?
A: 9.55e-05 M

Q: What about the “log10 [TGI (M)]” value ([23]; OVCAR-3, Ovarian Cancer, two days) of the same compound?
A: −4.72 log10 M
